Source: US11680298B2, “Method of identifying risk of cancer and therapeutic options” (Agency for Science, Technology and Research, priority 2016, dated 2023)

Assays:
HCC1937 = assay: Tumoursphere growth, HCC1937; format: cell-based; details: HCC1937, negative for 1q21.3 amplification, high phospho-IRAK1 and phospho-JAK2
Protocol: For this purpose, the 1q21.3 gene amplification in a series of breast cancer cell lines was profiled using ddPCR (FIG. 6A). Of note, 1q21.3 status in these cell lines was in general correlated with phospho-IRAK1 and expression of S100A8/9 (FIG. 6B and FIG. 14A), but not with phospho-JAK2 status (FIG. 6B).
Mammosphere Formation Assay PDX-derived tumoursphere cells were trypsinized and passed through 40 μm cell strainer to achieve single cell suspensions. 3×10^4 cells were seeded in 6-well ultra-low attachment plates (Corning, N.Y.; CLS3471) in serum-free DMEM/F12 supplemented with N2 and B27 (Gibco, Grand Island, N.Y.), 20 ng/ml epidermal growth factor (MACS, Auburn, Calif.), 20 ng/ml basic fibroblast growth factor (MACS, Auburn, Calif.), 0.2 μM Thiazovivin ([…] Technologies, Vancouver, BC) and penicillin/streptomycin (Gibco, Carlsbad, Calif.). For breast cancer cell lines and MCF10A cell line, 3×10^4 cells were seeded in 6-well ultra-low attachment plates in Mammocult medium (Stem Cell Technologies, Vancouver, BC, Canada), supplemented with fresh hydrocortisone (0.5 μg/ml) and heparin (1:500). […] After 7-9 days, mammospheres were stained with INT (2-(4-iodophenyl)-3-(4-nitrophenyl)-5-phenyl-2H-tetrazolium chloride, Sigma-Aldrich) and quantified. Imaging and quantification were done using GelCount apparatus and associated software (Oxford Optronix, Abingdon, UK). […]

S100A7/8/9 [1] = assay: Real-time PCR analysis of S100A7/8/9 gene expression in cells; format: cell-based, human
Protocol: Total RNA was isolated using TRIzol® reagent (Life Technologies, Carlsbad, Calif.; 15596026) and purified with Direct-zolTM RNA MiniPrep (Zymo Research, Irvine, Calif.; […]). Reverse transcription and quantitative PCR assays were performed using High-Capacity cDNA Reverse Transcription Kit (Applied Biosystems, Carlsbad, Calif.; 4368813) and KAPA SyBr Fast qPCR kit (KAPA Biosystems, Wilmington, Mass.; KK4601). For quantification of mRNA levels, GAPDH level was used as an internal control. All reactions were analysed in an Applied Biosystems PRISM 7500 Fast Real-Time PCR system in 96-well plate format. For RNA extraction of xenograft tumours, snap frozen samples were resuspended in TRIzol® reagent and homogenized with QIAGEN TissueLyzer II as described by the manufacturer, followed by purification with Direct-zolITM RNA MiniPrep.

HCC70 xenograft tumours = assay: In vivo pacritinib sensitivity test, HCC70 orthotopic xenograft; parameters: species or system NOD-SCID mice; details: 1q21.3-amplified HCC70; 50, 100 and 150 mg/kg pacritinib daily by oral gavage for 21 days
S100A7/8/9 [2] = assay: Real time RT-PCR of S100A7/8/9 expression in HCC70 xenograft; format: in vivo, NOD-SCID mice; details: HCC70 xenograft (n=4) treated with pacritinib
Protocol: Mice were then dosed daily by oral gavage for 21 days. Tumour growth was monitored for 1 month.
Total RNA was isolated using TRIzol® reagent (Life Technologies, Carlsbad, Calif.; 15596026) and purified with Direct-zol™ RNA MiniPrep (Zymo Research, Irvine, Calif.; R2050). Reverse transcription and quantitative PCR assays were performed using High-Capacity cDNA Reverse Transcription Kit (Applied Biosystems, Carlsbad, Calif.; 4368813) and KAPA SyBr Fast qPCR kit (KAPA Biosystems, Wilmington, Mass.; KK4601). For quantification of mRNA levels, GAPDH level was used as an internal control. All reactions were analysed in an Applied Biosystems PRISM 7500 Fast Real-Time PCR system in 96-well plate format. For RNA extraction of xenograft tumours, snap frozen samples were resuspended in TRIzol® reagent and homogenized with QIAGEN TissueLyzer II as described by the manufacturer, followed by purification with Direct-zolI™ RNA MiniPrep.

EL12-58 PDX tumours = assay: Neoadjuvant breast cancer PDX model of tumour recurrence; format: in vivo, NOD-SCID mice; details: after paclitaxel-induced regression and surgery; 20 mg/kg paclitaxel, 150 mg/kg pacritinib or both
[3] = Tolerability during treatment in the PDX mouse model; details: in vivo
Protocol: Surgical procedures and experiments were conducted in compliance with animal protocols approved by the A*STAR-Biopolis Institutional Animal Care and Use Committee of Singapore (IACUC). 6-8 wk old female NOD/MrkBomTac-Prkdcscid mice were purchased from InVivos (Singapore). For PDX orthotopic xenotransplantation, tissue suspension was first prepared from whole tumour explant from mammary fat pad of immunodeficient mice. Whole tumours were washed in PBS, minced with sterile scalpel and triturated until cells could pass through needle bore. The PDX cell suspension was resuspended in reduced Matrigel (BD Bioscience, Cat No: 356230), and then 10 μl was injected into the mammary fat pad. Autoclips was used for primary wound closure. Mice were observed post-procedure for 1-2 hr, and their body weights and wound healing were monitored weekly. Tumours were measured by vernier caliper twice weekly and the tumour volume was calculated with the following formula: V=W×W×L/2.
For in vivo PDX model, each mouse bore one PDX tumour on one side of the mammary fat pad. After the tumours reach 100 mm^3, the mice were randomized into two groups: Vehicle treated control tumour (n=4) and paclitaxel treated tumour ([…]). […] Following the drug treatments, the tumours were monitored for approximately one month. […]

Structure (SMILES): C1=C/COCc2cc(ccc2OCCN2CCCC2)Nc2nccc(n2)-c2cccc(c2)COC/1 [pacritinib]
- sensitivity to pacritinib (HCC1937): sensitive to pacritinib treatment
- expression of S100A7/8/9 (S100A7/8/9 [1]; MB468 cells, 24 hr pacritinib treatment): reduced the expression of S100A7/8/9 in MB468 cells in a dose-dependent manner
- S100A7 expression (S100A7/8/9 [1]; across the cell models tested): seemed to be cell specific
- expressions of S100A8 and S100A9 (S100A7/8/9 [1]; across the cell models tested): consistently reduced
- expression of S100A7/8/9 (S100A7/8/9 [1]; patient-derived tumoursphere cells, 24 hr, pacritinib 2.5 μM): reduced expression of S100A7/8/9
- tumour growth (HCC70 xenograft tumours): substantial inhibition in tumour growth
- S100A7/8/9 expression in xenograft (S100A7/8/9 [2]): downregulation
- tumour regrowth after surgical removal of residual tumour (EL12-58 PDX tumours): slowed down
- tolerability [3]: tolerated very well
- toxicity and body weight loss [3]: no obvious toxicity and body weight loss
